The text below walks through data of patent US20120108636A1, “Allosteric Enhancers of th A1 Adenosine Receptor” (King Pharmaceuticals Research and Development, Inc., priority 2008, published 2012).

The target of data set [1] is T1, human A1 receptors expressed in CHO membranes (Homo sapiens, UniProt P30542).
T1 construct: expressed in transfected cells; host or cells: CHO cells (hCHO-A1 clone), membrane preparation
T1 sequence (P30542 1-326): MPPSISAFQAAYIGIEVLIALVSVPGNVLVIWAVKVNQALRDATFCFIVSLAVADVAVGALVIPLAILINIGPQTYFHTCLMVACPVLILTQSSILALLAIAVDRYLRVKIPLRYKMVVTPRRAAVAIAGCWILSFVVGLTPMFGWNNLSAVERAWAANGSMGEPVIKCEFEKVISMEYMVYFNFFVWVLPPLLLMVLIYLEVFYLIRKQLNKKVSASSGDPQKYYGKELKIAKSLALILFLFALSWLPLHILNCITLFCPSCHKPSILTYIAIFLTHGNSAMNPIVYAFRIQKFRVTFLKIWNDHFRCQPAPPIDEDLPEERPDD
The data set is described as follows: Allosteric enhancement of specific binding of [3H]CCPA to hCHO-A1 membranes. The following applies: compound tested at 10 μM concentration. The method, then:
(§1) Membrane Preparation from CHO Cells Transfected with the Human Recombinant A1, A2A and A3 Adenosine Receptors
The hCHO-A1, hCHO-A2A and hCHO-A3 cell clones are grown adherently and maintained in Dulbecco's modified Eagle's medium with nutrient mixture F12, containing 10% fetal calf serum, penicillin (100 U/mL), streptomycin (100 μg/mL), L-glutamine (2 mM), geneticine (G418) 0.2mg/mL at 37° C. in 5% CO2/95% air. 30 min at 37° C. (Klotz et al. Naunyn-Schmied. Arch Pharm. 1998, 357, 1-9). Cells are split two or three times weekly at a ratio of between 1:5 and 1:10. For membrane preparation the culture medium is removed. The cells are washed with PBS and scraped off T75 flasks in ice-cold hypotonic buffer (5 mM Tris HCl, 2 mM EDTA, pH 7.4). The cell suspension is homogenized with Polytron and the homogenate is spun for 10 min at 1,000×g. The supernatant is then centrifuged for 30 min at 100,000×g. […] The protein concentration is determined according to a Bio-Rad method (Bradford, 1976) with bovine albumin as a standard reference.
To determine the effect of the compounds of the present invention on the binding to A1, A2A and A3 receptors, membranes from hCHO-A1, hCHO-A2A, hCHO-A3 are incubated in a buffer solution in the absence and in the presence of the examined compounds. […] Bound and free radioactivity are separated by filtering the assay mixture through Whatman GF/B glass fibre filters using a Micro-mate 196 cell harvester (Packard Instrument Company). The filter bound radioactivity is counted on Top Count Microplate Scintillation Counter (efficacy 57%) with Micro-Scint 20. […]
Competition experiments are carried out in triplicate in a final volume of 250 μL in test tubes containing 1 nM [^3H]CCPA, 50 mM Tris-HCl, pH 7.4 and 100 μL of diluted membranes and at least six to eight different concentrations of the tested compounds in the range from 1 nM to 50 μM for 90 min at 25° C. […] Allosteric enhancement is measured as the action of different concentrations of the tested compounds to increase the specific binding of 1 nM [^3H]CCPA to hCHO-A1 membranes.

In data set [2] the target is T1, human A1 receptors expressed in CHO membranes. The data set is described as follows: Saturation binding of [3H]CCPA to hCHO-A1. The following applies: compound tested at 10 μM concentration. The method, then:
as §1
The hCHO-A1, hCHO-A2A and hCHO-A3 cell clones are grown adherently and maintained in Dulbecco's modified Eagle's medium with nutrient mixture F12, containing 10% fetal calf serum, penicillin (100 U/mL), streptomycin (100 μg/mL), L-glutamine (2 mM), geneticine (G418) 0.2mg/mL at 37° C. in 5% CO2/95% air. 30 min at 37° C. (Klotz et al. Naunyn-Schmied. Arch Pharm. 1998, 357, 1-9). Cells are split two or three times weekly at a ratio of between 1:5 and 1:10. For membrane preparation the culture medium is removed. The cells are washed with PBS and scraped off T75 flasks in ice-cold hypotonic buffer (5 mM Tris HCl, 2 mM EDTA, pH 7.4). The cell suspension is homogenized with Polytron and the homogenate is spun for 10 min at 1,000×g. The supernatant is then centrifuged for 30 min at 100,000×g. The membrane pellet is resuspended in 50 mM Tris HCl buffer pH 7.4 for The A1 adenosine receptors, 50 mM Tris HCl buffer pH 7.4, 10 mM MgCl2 for A2A adenosine receptors, 50 mM Tris HCl buffer pH 7.4, 10 mM MgCl2, 1 mM EDTA for A3 adenosine receptors and incubated with 3 Ul/mL of adenosine deaminase for 30 min at 37° C. The protein concentration is determined according to a Bio-Rad method (Bradford, 1976) with bovine albumin as a standard reference.
To determine the effect of the compounds of the present invention on the binding to A1, A2A and A3 receptors, membranes from hCHO-A1, hCHO-A2A, hCHO-A3 are incubated in a buffer solution in the absence and in the presence of the examined compounds. Test agents are dissolved in DMSO and added to the assay from a 100-fold concentrated solution in DMSO. Control incubations also contain 1% DMSO. Bound and free radioactivity are separated by filtering the assay mixture through Whatman GF/B glass fibre filters using a Micro-mate 196 cell harvester (Packard Instrument Company). The filter bound radioactivity is counted on Top Count Microplate Scintillation Counter (efficacy 57%) with Micro-Scint 20.
Saturation Binding of [^3H]CCPA to hCHO-A1 […]

On to `Nc1sc(-c2ccccc2)c(CN(C2CCCCC2)C2CCCCC2)c1C(=O)c1ccc(Cl)cc1` [Example 2, {2-Amino-4-[(dicyclohexylamino)methyl]-5-phenyithiophen-3-yl}(4-chlorophenyl)methanone], for which the “increase of the A1 specific binding of the agonist [3H]CCPA to human CHO-A1 membranes” value (from here on “increase … to human CHO-A1 membranes”) in data set [1] is listed as “up to 4.4 fold”. In data set [2], the “increase in the BMAX value of the agonist [3H]CCPA” value (shortened to “increase in the BMAX value”) is given as “about 3.5 fold”.
For the molecule `CC(C)(C)CN(Cc1c(-c2ccccc2)sc(N)c1C(=O)c1ccc(Cl)cc1)CC(C)(C)C` [Example 16-9, {2-Amino-4-[(dineopentylamino)methyl]-5-phenylthiophen-3-yl}(4-chlorophenyl)methanone], the “increase … to human CHO-A1 membranes” value in data set [1] is no more than 5.5 fold. The “increase in the BMAX value” value in data set [2] was roughly 6.3 fold.
For orientation: melting point means the temperature, or range, at which the solid turns liquid. Regarding `Nc1sc(-c2cccs2)c(CN(C2CCCCC2)C2CCCCC2)c1C(=O)c1ccc(Cl)cc1` [Example 30, {2-Amino-4-[(dicyclohexylamino)methyl]-5-(thiophen-2-yl)thiophen-3-yl}(4-chlorophenyl)methanone], the melting point was 197 to 199 °C. The “increase … to human CHO-A1 membranes” value in data set [1] is recorded as no more than 4.2 fold. Further, in data set [2], the “increase in the BMAX value” value was roughly 4.6 fold.
`Nc1sc(-c2ccccn2)c(CN(C2CCCCC2)C2CCCCC2)c1C(=O)c1ccc(Cl)cc1` [Example 34, {2-am ino-4-[(dicyclohexylamino)methyl]-5-(pyridin-2-yl)thiophen-3-yl}(4-chlorophenyl)methanone] displayed a melting point of 192 to 194 °C.
Still for that read-out and setting: the result for `Nc1sc(-c2cccnc2)c(CN(C2CCCCC2)C2CCCCC2)c1C(=O)c1ccc(Cl)cc1` [Example 35, {2-amino-4-[(dicyclohexylamino)methyl]-5-(pyridin-3-yl)thiophen-3-yl}(4-chlorophenyl)methanone] reads 168 to 170 °C.
The same measure, in the same setting: the result for `Nc1sc(-c2ccncc2)c(CN(C2CCCCC2)C2CCCCC2)c1C(=O)c1ccc(Cl)cc1` [Example 36, {2-amino-4-[(dicyclohexylamino)methyl]-5-(pyridin-4-yl)thiophen-3-yl}(4-chlorophenyl)methanone] reads 214 to 216 °C.
The molecule `Nc1sc(/C=C/CC2CCCCC2)c(CN(C2CCCCC2)C2CCCCC2)c1C(=O)c1ccc(Cl)cc1` [Example 37, (E)-{2-Amino-5-(3-cyclohexylprop-1-enyl)-4-[(dicyclohexylamino)methyl]thiophen-3-yl}(4-chlorophenyl)methanone] showed a melting point of 147 to 150 °C.
Still for that read-out and setting: the result for `Nc1sc(/C=C/Cc2ccc(Cl)cc2)c(CN(C2CCCCC2)C2CCCCC2)c1C(=O)c1ccc(Cl)cc1` [Example 38, (E)-{2-amino-5[3-(4-chlorophenyl)prop-1-enyl]-4-[(dicyclohexylamino)methyl]thiophen-3-yl}(4-chlorophenyl)methanone] reads 143 to 146 °C.
